Source: US11053204B2, “Pyrimidinyloxy benzene derivatives as herbicides” (FMC Corporation, priority 2015, dated 2021)

Experiments:
Assay type in all cases: in vivo
kochia (Kochia scoparia) = test: Test C preemergence, plant response rating
[1] = system: geranium, cutleaf (cutleaf geranium, Geranium dissectum); test: Test C postemergence, plant response rating; settings: for Geranium, Cutleaf plant response rating: scale 0 to 100 (0 no effect, 100 complete control)
Summary of the method: (§1)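 Preemergence: seeds sown in loam–sand blend or silt loam and sprayed with test chemicals in a non-phytotoxic surfactant-containing solvent. Postemergence: potted plants at 2–18 cm (1–4-leaf stage) sprayed with the same formulation. After 13–15 d in greenhouse, visual rating versus controls on 0 (no effect) to 100 (complete control) scale.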

[2] = system: windgrass (Apera spica-venti); test: Test C postemergence, plant response rating
Summary of the method: as §1

[3] = system: field violet (Viola arvensis); test: Test C postemergence, plant response rating; settings: for Field Violet plant response rating: scale 0 to 100 (0 no effect, 100 complete control)
Summary of the method: as §1

[4] = system: pigweed, palmer (palmer pigweed, Amaranthus palmeri); test: Test C postemergence, plant response rating; settings: for Pigweed, Palmer plant response rating: scale 0 to 100 (0 no effect, 100 complete control)
Summary of the method: as §1

[5] = system: field poppy (Papaver rhoeas); test: Test C postemergence, plant response rating; settings: for Field Poppy plant response rating: scale 0 to 100 (0 no effect, 100 complete control)
Summary of the method: as §1

[6] = system: wild poinsettia (Euphorbia heterophylla); test: Test C postemergence, plant response rating; settings: for Poinsettia, Wild plant response rating: scale 0 to 100 (0 no effect, 100 complete control)
Summary of the method: as §1

[7] = system: wild mustard (Sinapis arvensis); test: Test C postemergence, plant response rating; settings: for Mustard, Wild plant response rating: scale 0 to 100 (0 no effect, 100 complete control)
Summary of the method: as §1

[8] = system: buckwheat, wild (wild buckwheat, Polygonum convolvulus); test: Test C postemergence, plant response rating; settings: for Buckwheat, Wild plant response rating: scale 0 to 100 (0 no effect, 100 complete control)
Summary of the method: as §1

[9] = system: johnsongrass (Sorghum halepense); test: Test C postemergence, plant response rating; settings: for Johnsongrass plant response rating: scale 0 to 100 (0 no effect, 100 complete control)
Summary of the method: as §1

[10] = system: surinam grass (Brachiaria decumbens); test: Test C postemergence, plant response rating
Summary of the method: as §1

[11] = system: Canada thistle (Cirsium arvense); test: Test C postemergence, plant response rating; settings: for Canada Thistle plant response rating: scale 0 to 100 (0 no effect, 100 complete control)
Summary of the method: as §1

[12] = system: nightshade (eastern black nightshade, Solanum ptycanthum); test: Test C postemergence, plant response rating; settings: for Nightshade plant response rating: scale 0 to 100 (0 no effect, 100 complete control)
Summary of the method: as §1

[13] = system: speedwell (bird's-eye speedwell, Veronica persica); test: Test C postemergence, plant response rating; settings: for Speedwell plant response rating: scale 0 to 100 (0 no effect, 100 complete control)
Summary of the method: as §1

[14] = system: pigweed, palmer (palmer pigweed, Amaranthus palmeri); test: Test C preemergence, plant response rating
[15] = system: johnsongrass (Sorghum halepense); test: Test C preemergence, plant response rating
[16] = system: surinam grass (Brachiaria decumbens); test: Test C preemergence, plant response rating
[17] = system: oat, wild (wild oat Avena fatua); test: Test C preemergence, plant response rating
[18] = system: wild poinsettia (Euphorbia heterophylla); test: Test C preemergence, plant response rating
[19] = system: galium (catchweed bedstraw, Galium aparine); test: Test C preemergence, plant response rating
[20] = 125 g ai/ha, scale 0 to 100 (0 no effect, 100 complete control)

`FC(F)(F)CCCCc1c(Br)cccc1Oc1ncc(Cl)cn1` [Compound 138] was tested, and the “Plant response rating, Kochia” value (kochia (Kochia scoparia); 31 g ai/ha, scale 0 to 100) was 75, the “Plant response rating, Kochia” value (kochia (Kochia scoparia); 62 g ai/ha, scale 0 to 100) was 80 and the “Plant response rating, Kochia” value (kochia (Kochia scoparia); 125 g ai/ha, scale of 0 to 100) was 80. The “Plant response rating, Geranium, Cutleaf” value ([1]; 16 g ai/ha, scale of 0 to 100) was 30, the “Plant response rating, Geranium, Cutleaf” value ([1]; 31 g ai/ha, scale 0 to 100) was 35 and the “Geranium, Cutleaf plant response rating” value ([1]; 62 g ai/ha) was 55. The “Geranium, Cutleaf plant response rating” value ([1]; 125 g ai/ha) was 60, the “Plant response rating, Windgrass” value ([2]; 16 g ai/ha, scale of 0 to 100) was 0 and the “Plant response rating, Windgrass” value ([2]; 31 g ai/ha, scale 0 to 100) was 15. The “Windgrass plant response rating” value [2, 20] was 50, the “Plant response rating, Field Violet” value ([3]; 16 g ai/ha, scale of 0 to 100) was 90 and the “Plant response rating, Field Violet” value ([3]; 31 g ai/ha, scale 0 to 100) was 95. For the same molecule, the “Field Violet plant response rating” value ([3]; 62 g ai/ha) was 100, the “Field Violet plant response rating” value ([3]; 125 g ai/ha) was 100 and the “Plant response rating, Pigweed, Palmer” value ([4]; 16 g ai/ha, scale of 0 to 100) was 75. For the same molecule, the “Plant response rating, Pigweed, Palmer” value ([4]; 31 g ai/ha, scale 0 to 100) was 80, the “Pigweed, Palmer plant response rating” value ([4]; 62 g ai/ha) was 90 and the “Pigweed, Palmer plant response rating” value ([4]; 125 g ai/ha) was 98. For the same molecule, the “Plant response rating, Field Poppy” value ([5]; 16 g ai/ha, scale of 0 to 100) was 100, the “Plant response rating, Field Poppy” value ([5]; 31 g ai/ha, scale 0 to 100) was 100 and the “Field Poppy plant response rating” value ([5]; 62 g ai/ha) was 100. For the same molecule, the “Field Poppy plant response rating” value ([5]; 125 g ai/ha) was 100, the “Plant response rating, Poinsettia, Wild” value ([6]; 16 g ai/ha, scale of 0 to 100) was 30 and the “Plant response rating, Poinsettia, Wild” value ([6]; 31 g ai/ha, scale 0 to 100) was 60. The “Poinsettia, Wild plant response rating” value ([6]; 62 g ai/ha) was 75, the “Poinsettia, Wild plant response rating” value ([6]; 125 g ai/ha) was 90 and the “Plant response rating, Mustard, Wild” value ([7]; 16 g ai/ha, scale of 0 to 100) was 100. For the same molecule, the “Plant response rating, Mustard, Wild” value ([7]; 31 g ai/ha, scale 0 to 100) was 100, the “Mustard, Wild plant response rating” value ([7]; 62 g ai/ha) was 100 and the “Mustard, Wild plant response rating” value ([7]; 125 g ai/ha) was 100. The “Plant response rating, Buckwheat, Wild” value ([8]; 16 g ai/ha, scale of 0 to 100) was 70, the “Plant response rating, Buckwheat, Wild” value ([8]; 31 g ai/ha, scale 0 to 100) was 80 and the “Buckwheat, Wild plant response rating” value ([8]; 62 g ai/ha) was 100. For the same molecule, the “Buckwheat, Wild plant response rating” value ([8]; 125 g ai/ha) was 100, the “Plant response rating, Johnsongrass” value ([9]; 16 g ai/ha, scale of 0 to 100) was 10 and the “Plant response rating, Johnsongrass” value ([9]; 31 g ai/ha, scale 0 to 100) was 25. The “Johnsongrass plant response rating” value ([9]; 62 g ai/ha) was 80, the “Johnsongrass plant response rating” value ([9]; 125 g ai/ha) was 90 and the “Plant response rating, Surinam Grass” value ([10]; 16 g ai/ha, scale of 0 to 100) was 20. For the same molecule, the “Plant response rating, Surinam Grass” value ([10]; 31 g ai/ha, scale 0 to 100) was 20, the “Surinam Grass plant response rating” value [10, 20] was 35 and the “Plant response rating, Canada Thistle” value ([11]; 16 g ai/ha, scale of 0 to 100) was 80. For the same molecule, the “Plant response rating, Canada Thistle” value ([11]; 31 g ai/ha, scale 0 to 100) was 80, the “Canada Thistle plant response rating” value ([11]; 62 g ai/ha) was 90 and the “Canada Thistle plant response rating” value ([11]; 125 g ai/ha) was 95. The “Plant response rating, Nightshade” value ([12]; 16 g ai/ha, scale of 0 to 100) was 75, the “Plant response rating, Nightshade” value ([12]; 31 g ai/ha, scale 0 to 100) was 80 and the “Nightshade plant response rating” value ([12]; 62 g ai/ha) was 100. For the same molecule, the “Nightshade plant response rating” value ([12]; 125 g ai/ha) was 98, the “Plant response rating, Speedwell” value ([13]; 16 g ai/ha, scale of 0 to 100) was 95 and the “Plant response rating, Speedwell” value ([13]; 31 g ai/ha, scale 0 to 100) was 100. The “Speedwell plant response rating” value ([13]; 62 g ai/ha) was 100, the “Speedwell plant response rating” value ([13]; 125 g ai/ha) was 100 and the “Plant response rating, Pigweed, Palmer” value ([14]; 31 g ai/ha, scale 0 to 100) was 60. The “Plant response rating, Pigweed, Palmer” value ([14]; 62 g ai/ha, scale 0 to 100) was 100, the “Plant response rating, Pigweed, Palmer” value ([14]; 125 g ai/ha, scale of 0 to 100) was 100 and the “Plant response rating, Johnsongrass” value ([15]; 31 g ai/ha, scale 0 to 100) was 0. For the same molecule, the “Plant response rating, Johnsongrass” value ([15]; 62 g ai/ha, scale 0 to 100) was 50, the “Plant response rating, Johnsongrass” value ([15]; 125 g ai/ha, scale of 0 to 100) was 60 and the “Plant response rating, Surinam Grass” value ([16]; 31 g ai/ha, scale 0 to 100) was 65. The “Plant response rating, Surinam Grass” value ([16]; 62 g ai/ha, scale 0 to 100) was 65, the “Plant response rating, Surinam Grass” value ([16]; 125 g ai/ha, scale of 0 to 100) was 75 and the “Plant response rating, Oat, Wild” value ([17]; 31 g ai/ha, scale 0 to 100) was 0. For the same molecule, the “Plant response rating, Oat, Wild” value ([17]; 62 g ai/ha, scale 0 to 100) was 5, the “Plant response rating, Oat, Wild” value ([17]; 125 g ai/ha, scale of 0 to 100) was 30 and the “Plant response rating, Poinsettia, Wild” value ([18]; 31 g ai/ha, scale 0 to 100) was 0. For the same molecule, the “Plant response rating, Poinsettia, Wild” value ([18]; 62 g ai/ha, scale 0 to 100) was 5, the “Plant response rating, Poinsettia, Wild” value ([18]; 125 g ai/ha, scale of 0 to 100) was 50 and the “Plant response rating, Galium” value ([19]; 31 g ai/ha, scale 0 to 100) was 0. For the same molecule, the “Plant response rating, Galium” value ([19]; 62 g ai/ha, scale 0 to 100) was 5 and the “Plant response rating, Galium” value ([19]; 125 g ai/ha, scale of 0 to 100) was 5.
